Laboratory results: PMC9532970, “Rational design of photosynthetic reaction center protein maquettes” (Frontiers in Molecular Biosciences, 2022)
Like-named read-outs stand apart in the source and are kept apart here.

Tests used:
RC maquette = test: UV/vis cofactor binding titration into RC maquette (no heme pre-bound); settings: for Kd: electron acceptor titrated into 1.1-4.4 µM RC maquette, pH 7.0, fit to one-site binding equation (Eq. 2), read-out: dissociation constant (KD)
Protocol: (§1) Ultraviolet/visible absorbance spectroscopy (UV/vis) was carried out on a Varian Cary-50 spectrophotometer. Cofactor binding titrations were performed at room temperature using 1 ml samples of ∼1 μM RC maquette in quartz cuvettes. Protein concentrations were calculated by assuming that Trp and Tyr residues have extinction coefficients at 280 nm (ε280nm) of 5,500 M^−1 cm^−1 and 1,490 M^−1 cm^−1, respectively. Samples of Zn 5-phenyl 15-(p-carboxyphenyl) porphyrin (ZnPCP) and Zn Newkome porphyrin were provided by Tatiana Esipova from the research group of Sergei Vinogradov ([Kodali et al., 2017]). The Zn chlorins SE370 and SE375 were produced by the laboratory of Jonathan Lindsey following previously established methods ([Aravindu et al., 2013]; [Kodali et al., 2017]). Other tetrapyrroles were purchased from Frontier Scientific, Inc. Stock solutions of water-soluble cofactors were prepared in water, and insoluble tetrapyrroles were prepared in dimethyl sulfoxide stock solutions of 100–200 µM concentration. Heme B stock concentrations were measured by hemochrome assay ([Berry and Trumpower, 1987]). Stock concentrations of other tetrapyrrole cofactors were estimated by mass measurements.
(§2) For each titration, a cofactor stock solution was titrated into the protein solution in the cuvette. After each addition of cofactor, at least 10 min were allowed for equilibration before collecting a UV/vis spectrum. Cofactor was typically added in steps of 0.1 equivalents of cofactor per protein until after the binding capacity of the protein appeared to have been reached, at which point 0.2 equivalents of cofactor per protein were added at a time. Binding titrations continued until at total of at least three equivalents of cofactor per protein had been added. To determine dissociation constants, we used the following one-site binding equation: A=ctotɛfree+(ɛbound−ɛfree)KD+Ptot+ctot−(KD+Ptot+ctot)^2−4Ptotctot/2+b (2)
(§3) In Eq. 2, A represents the total absorbance at a given wavelength, c tot is the total cofactor concentration, P tot is the total protein concentration, K D is the dissociation constant, εfree is the extinction coefficient of unbound cofactor in solution, εbound is the extinction coefficient of protein-bound cofactor, and b is the absorbance of the sample when c tot is zero.

cyt. b 562 = settings: read-out: KD of CoPPIX for cyt. b 562, cited from earlier work
[1] = molecular target: RC maquette-heme B complex; test: UV/vis pigment binding titration into RC maquette with heme B bound; settings: RC maquette (His124) with heme B bound to the acceptor site; for Kd: read-out: Dissociation constant (KD)
Protocol: as §1, §2, §3

DH maquette = test: UV/vis heme binding titration into DH maquette; settings: ferric heme B into 0.5 µM DH maquette, 50 mM NaCl, 10 mM MOPS pH 7.5; read-out: dissociation constant (KD)

Question: Which “CoPPIX affinity relative to heme B affinity of the RC maquette (times weaker)” value (RC maquette; KD 250 nM vs <10 nM) does the source give for C=Cc1c(C)c2cc3[nH]c(cc4nc(cc5nc(cc1[nH]2)C(C)=C5CCC(=O)[O-])C(CCC(=O)[O-])=C4C)c(C)c3C=C.[Co+2] [CoPPIX, Co(III) protoporphyrin IX] here?
Answer: about 25 times

Question: What about the Kd (RC maquette) of the same compound?
Answer: 0.25 µM

Question: What about the Kd (cyt. b 562; lower end of literature range, ref Alcala-Torano et al., 2021) of the same compound?
Answer: 0.045 µM

Question: And the Kd (cyt. b 562; upper end of literature range, ref Sommer et al., 2016)?
Answer: 8.9 µM

Question: Which Kd (RC maquette) does the source give for CC(=O)C1=C(C)C2=Cc3c(C(C)=O)c(C)c4[n]3[Fe][n]3c(c(C)c(CCC(=O)O)c3=CC3=NC(=C4)C(C)=C3CCC(=O)O)=CC1=N2 [Fe(III)-DADPIX, Fe(III) 2,4-diacetyl deuteroporphyrin IX] here?
Answer: < 0.01 µM

Question: For C1=Cc2nc1c(-c1ccccc1)c1ccc([n-]1)c(-c1ccncc1)c1nc(c(-c3ccccc3)c3ccc([n-]3)c2-c2ccncc2)C=C1.[Zn+2] [Zn meso-di(4-pyridyl)-diphenyl porphyrin], which “Dissociation constant (KD), result in words” value (“Dissociation constant (KD)” for short) [1] is on record?
Answer: no binding detected

Question: Which Kd [1] does the source give for O=C(O)c1ccc(-c2c3nc(c(-c4ccc(C(=O)O)cc4)c4ccc([nH]4)c(-c4ccc(C(=O)O)cc4)c4nc(c(-c5ccc(C(=O)O)cc5)c5ccc2[nH]5)C=C4)C=C3)cc1 [Zn meso-tetra(4-carboxyphenyl) prophyrin] here?
Answer: 5 µM

Question: For CCC1=C(C)c2cc3[n-]c(cc4[n-]c(cc5nc(cc1n2)C(C)=C5CC)c(C)c4CCC(=O)O)c(CCC(=O)O)c3C.[Zn+2] [Zn mesoporphyrin IX (ZnMPIX), Zn mesoporphyrin IX], which “Dissociation constant (KD)” value [1] is on record?
Answer: no binding detected

Question: With C=CC1=C(C)c2cc3[nH]c(cc4[nH]c(cc5nc(cc1n2)C(C)=C5C=C)c(C)c4CCC(=O)O)c(CCC(=O)O)c3C [Zn protoporphyrin IX (ZnPPIX), Zn protoporphyrin IX] as the compound, how does the Kd [1] read?
Answer: 2 µM

Question: For C=CC1=C(C)c2cc3[n-]c(cc4[n-]c(cc5nc(cc1n2)C(C)=C5C=C)c(C)c4CCC(=O)O)c(CCC(=O)O)c3C.[Fe+2] [heme B], which Kd (RC maquette) is on record?
Answer: < 0.01 µM

Question: What about the Kd (DH maquette) of the same compound?
Answer: < 0.01 µM

Question: For Zn chlorin e6 [Zn chlorin e6 (ZnCe6)], which “Dissociation constant (KD)” value [1] is on record?
Answer: no binding detected
